Data published in US9284350B2, “IAP BIR domain binding compounds” (Pharmascience Inc., priority 2010, dated 2016).

What was measured:
[1] = molecular target: T1, XIAP (Homo sapiens, UniProt P98170); experiment: Fluorescence polarization-based competition assay, XIAP; format: binding; conditions: FP assay, ki derived from IC50
T1 construct: fused on or other part: GST tag at the N-terminus (pGEX4T vectors)
Method in brief: (§1)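 Competition of FITC-labelled probe (2 nM) binding to the BIR domain, protein set at 80% of maximal FP signal; 10-point compound dilutions in 50 mM HEPES pH 7.5, γ-globulin, 2 mM DTT, 1% DMSO, 1 h at room temperature in the dark. IC50 from sigmoidal fit; Ki derived from IC50.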

[2] = molecular target: T2, c-IAP1 (Homo sapiens, UniProt Q13490); experiment: Fluorescence polarization-based competition assay, c-IAP1; format: binding; conditions: FP assay, ki derived from IC50
T2 construct: GST (N); made in house; host or cells: E. coli DH5α
T2 sequence (Q13490 251-363): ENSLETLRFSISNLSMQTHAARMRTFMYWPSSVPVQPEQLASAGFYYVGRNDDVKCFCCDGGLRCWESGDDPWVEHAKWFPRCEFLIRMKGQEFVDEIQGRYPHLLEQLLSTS
Method in brief: as §1

[3] = molecular target: T3, cIAP2 (Homo sapiens, UniProt Q13489); experiment: Fluorescence polarization-based competition assay, cIAP2; format: binding; conditions: FP assay, ki derived from IC50
T3 construct: GST (N); made in house; host or cells: E. coli DH5α
T3 sequence (Q13489 236-349): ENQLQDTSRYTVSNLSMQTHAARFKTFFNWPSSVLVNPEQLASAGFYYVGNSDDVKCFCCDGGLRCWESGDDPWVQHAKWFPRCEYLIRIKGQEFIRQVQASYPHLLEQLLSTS
Experimental: Binding of compounds of Formula 1 to target BIR domains was measured using a fluorescence-polarization (FP) assay. Fluorescence-polarization was evaluated using a GENios microplate reader (TECAN) Pro instrument with the excitation filter set at 485 nm and the emission filter set at 535 nm. The final amount of protein used in the assay corresponds to the amount of protein necessary to obtain 80% of the maximum FP value in a P1 or P2 fluorescent (FITC) probe saturation experiment. The compounds potency (IC50) and selectivity, was assessed in the presence of the amount of target protein established, fluorescent probe, and a 10 point serial dilution in assay buffer (50 mM Hepes, pH 7.5, 250 mcg/mL γ-globulin, 2 mM DTT, 1% DMSO) of the selected compounds.
Assays were carried out in duplicate using untreated black 96-well plates (Corning #3915) and a total volume of 100 microliters, containing 25 microliters of fluorescent probe at a final concentration of 2 nM in assay buffer, 25 microliters of diluted compound, 25 microliters of BIR protein into assay buffer and 25 microliters of assay buffer. Buffer only (blank) or probe only in buffer (G-factor) were used as controls for calibration. The plate was incubated at room temperature in the dark for one hour and FP values in millipolarization units (mP) were recorded using Genios Pro FP reader.
The measured FP values (mP) were then plotted against compound concentration, and IC50 values were calculated based on a sigmoidal dose-response (variable-slope) curve fit using GraphPad Prism version 4.02 for Windows, GraphPad Software, San Diego Calif. USA and/or CambridgeSoft BioAssay Enterprise Version 10.1. The IC50 value is the concentration of test compound at which 50% of the tracer was displaced. ki values were derived from the calculated IC50 values as described above and according to the equation described in Nikolovska-Coleska, Z. (2004) Anal Biochem 332, 261-273. The results are presented in Table 2, wherein A=less than 25 nM; B=less than 250 nM; C=less than 1000 nM; and D=greater than 1000 nM.

[4] = test system: Colorectal carcinoma HCT116 cells; experiment: Cell death assay (MTT) in combination with HGS ETR1; format: cell-based; conditions: with HGS ETR1 30 ng/ml, 72 hours, read-out: HCT116+ mapatubimap EC50
Method in brief: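 HCT116 cells (2000/well, McCoy's 5a, 10% FBS) were treated 24 h after plating with compound plus the agonistic TRAIL receptor antibody mapatumumab (ETR1, 30 ng/ml) for 72 hours. Viability was read by MTT. EC50 was the concentration giving 50% survival relative to untreated controls.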

T1 sequence (P98170 246-497 limits assumed): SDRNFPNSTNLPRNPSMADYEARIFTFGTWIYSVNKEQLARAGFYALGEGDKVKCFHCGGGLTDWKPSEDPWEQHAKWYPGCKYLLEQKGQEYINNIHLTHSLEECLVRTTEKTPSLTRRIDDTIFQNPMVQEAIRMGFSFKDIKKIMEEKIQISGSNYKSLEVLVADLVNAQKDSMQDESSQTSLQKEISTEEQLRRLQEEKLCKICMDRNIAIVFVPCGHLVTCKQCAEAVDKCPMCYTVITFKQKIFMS

SMILES | Ki [1] [nM] | Ki [2] [nM] | Ki [3] [nM] | EC50 [4] [nM]
CCO[C@H](C)[C@H](NC(=O)[C@H](C)NC)C(=O)N1CCC[C@H]1CN(CCc1ccc(F)cc1)C(=O)c1cn(-c2ccc(F)cc2)cn1 [Compound 79] | < 250 | < 25 | < 25 | < 50
CN[C@@H](C)C(=O)N[C@H](C(=O)N1CCC[C@H]1CN(CCc1ccc(F)cc1)C(=O)c1cn2cc(F)cnc2n1)[C@@H](C)OC [Compound 74] | < 250 | < 25 | < 25 | < 50
CN[C@@H](C)C(=O)N[C@H](C(=O)N1C[C@@H](NC(=O)c2ccccc2)C[C@H]1CN(CCc1ccc(F)cc1)C(=O)c1cn2c(n1)CCC2)C(C)(C)C [Compound 89] | < 250 | < 25 | < 25 | < 50
CN[C@@H](C)C(=O)N[C@H](C(=O)N1CCC[C@H]1CN(CCc1ccc(F)cc1)C(=O)c1cn(-c2ccccc2)nn1)[C@@H](C)OC [Compound 77] | < 250 | < 25 | < 25 | < 50
CN[C@@H](C)C(=O)N[C@H](C(=O)N1CCC[C@H]1CN(CCc1ccc(F)cc1)C(=O)c1cn(C)cn1)[C@@H](C)OC [Compound 73] | < 250 | < 25 | < 25 | < 250
CN[C@@H](C)C(=O)N[C@H](C(=O)N1C[C@@H](Oc2ccncc2)C[C@H]1CN(CCc1ccc(F)cc1)C(=O)c1cn2ccccc2n1)C(C)(C)C [Compound 106] | < 250 | < 25 | < 25 | < 50
CN[C@@H](C)C(=O)N[C@H](C(=O)N1CCC[C@H]1CN(CCc1ccc(F)cc1)C(=O)c1cncn1C)C(C)(C)C [Compound 92] | < 1000 | < 25 | < 250 | < 250
CN[C@@H](C)C(=O)N[C@H](C(=O)N1CCC[C@H]1CN(CCc1ccc(F)cc1)C(=O)c1cn(C(C)C)cn1)C(C)(C)C [Compound 94] | < 250 | < 25 | < 25 | < 50
CN[C@@H](C)C(=O)N[C@H](C(=O)N1C[C@@H](Oc2ccc(F)cc2)C[C@H]1CN(CCc1ccc(F)cc1)C(=O)c1cn(C)cn1)C(C)(C)C [Compound 82] | < 25 | < 25 | < 25 | < 50
C[C@H](N)C(=O)N[C@H](C(=O)N1CCC[C@H]1CN(CCc1ccc(F)cc1)C(=O)c1cn2cccnc2n1)C(C)(C)C [Compound 37] | < 250 | < 25 | < 25 | > 1000
CCO[C@H](C)[C@H](NC(=O)[C@H](C)NC)C(=O)N1CCC[C@H]1CN(CCc1ccc(F)cc1)C(=O)c1cn2c(n1)CCC2 [Compound 81] | < 250 | < 25 | < 25 | < 50
CN[C@@H](C)C(=O)N[C@H](C(=O)N1CCC[C@H]1CN(CCc1ccc(F)cc1)C(=O)c1ccn(-c2ccccc2)c1)C(C)(C)C [Compound 122] | < 250 | < 25 | < 25 | < 250
CN[C@@H](C)C(=O)N[C@H](C(=O)N1CCC[C@H]1CN(CCc1ccc(F)cc1)C(=O)c1ncc(-c2ccccc2)o1)C(C)(C)C [Compound 123] | < 250 | < 25 | < 25 | < 50
CCN[C@@H](C)C(=O)N[C@H](C(=O)N1CCC[C@H]1CN(CCc1ccccc1)C(=O)c1cn2cccnc2n1)C1CCOCC1 [Compound 4] | < 1000 | < 250 | < 250 | > 1000
CN[C@@H](C)C(=O)N[C@H](C(=O)N1CCC[C@H]1CN(CCc1ccc(F)cc1)C(=O)c1cn(C2CCOCC2)cn1)C(C)(C)C [Compound 95] | < 250 | < 25 | < 25 | < 50
CN[C@@H](C)C(=O)N[C@H](C(=O)N1CCC[C@H]1CN(CCc1ccc(F)cc1)C(=O)c1cn2cc(F)cnc2n1)C1CCCCC1 [Compound 103] | < 250 | < 25 | < 25 | < 50
